The Ki is the equilibrium dissociation constant of an inhibitor or competing ligand from its target. Low values mean higher affinity, high ones lower affinity.

Test [1] addresses Sodium-dependent serotonin transporter (Rattus norvegicus, UniProt P31652).
For test [2], the target named is Norepinephrine transporter (Rattus norvegicus, UniProt Q9JIA2).
Test [3] addresses Sodium-dependent dopamine transporter (Rattus norvegicus, UniProt P23977).

Chain of Sodium-dependent dopamine transporter (P23977 whole entry): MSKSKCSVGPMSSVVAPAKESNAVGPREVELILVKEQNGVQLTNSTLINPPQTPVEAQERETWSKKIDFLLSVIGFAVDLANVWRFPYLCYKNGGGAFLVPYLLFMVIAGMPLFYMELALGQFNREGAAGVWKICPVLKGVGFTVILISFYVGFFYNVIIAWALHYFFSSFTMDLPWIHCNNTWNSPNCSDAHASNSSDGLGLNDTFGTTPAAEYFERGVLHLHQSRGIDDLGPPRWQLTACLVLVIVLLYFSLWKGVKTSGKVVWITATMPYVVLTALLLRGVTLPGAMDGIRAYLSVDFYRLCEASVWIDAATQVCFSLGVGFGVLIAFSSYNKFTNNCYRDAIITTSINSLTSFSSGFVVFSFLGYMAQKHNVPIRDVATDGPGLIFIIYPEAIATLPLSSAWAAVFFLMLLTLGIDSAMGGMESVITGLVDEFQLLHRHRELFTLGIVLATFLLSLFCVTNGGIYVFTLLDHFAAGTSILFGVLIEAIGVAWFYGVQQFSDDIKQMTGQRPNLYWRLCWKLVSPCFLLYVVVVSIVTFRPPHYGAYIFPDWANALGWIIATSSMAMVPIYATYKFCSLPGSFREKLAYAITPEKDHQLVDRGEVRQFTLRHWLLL
Chain of Sodium-dependent serotonin transporter (P31652 whole entry): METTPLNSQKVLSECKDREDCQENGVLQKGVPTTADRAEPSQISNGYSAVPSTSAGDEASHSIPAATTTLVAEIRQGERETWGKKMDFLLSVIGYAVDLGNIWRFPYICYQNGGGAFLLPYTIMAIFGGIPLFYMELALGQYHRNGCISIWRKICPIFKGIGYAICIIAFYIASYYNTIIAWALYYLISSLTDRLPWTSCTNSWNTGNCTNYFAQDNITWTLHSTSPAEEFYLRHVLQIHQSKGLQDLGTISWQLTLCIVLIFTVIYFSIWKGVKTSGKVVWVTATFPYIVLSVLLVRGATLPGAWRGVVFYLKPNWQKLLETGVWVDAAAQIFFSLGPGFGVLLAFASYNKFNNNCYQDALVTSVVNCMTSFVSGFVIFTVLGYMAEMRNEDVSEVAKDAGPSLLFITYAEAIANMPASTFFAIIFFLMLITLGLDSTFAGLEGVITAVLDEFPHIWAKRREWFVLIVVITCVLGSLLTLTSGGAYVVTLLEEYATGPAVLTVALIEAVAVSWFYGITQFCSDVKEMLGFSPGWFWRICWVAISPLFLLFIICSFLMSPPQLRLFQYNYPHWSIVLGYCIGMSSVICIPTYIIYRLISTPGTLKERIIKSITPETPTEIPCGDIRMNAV

As for `COC(=O)[C@H](c1ccccc1)[C@H]1CCCCN1` [methyl (2R)-phenyl[(2R)-piperidin-2-yl]acetate], the inhibition constant (Ki) in test [1] was greater than 10000 nM; in test [2], 126 nM.

The compound `CNCCC(Oc1ccccc1OC)c1ccccc1` (stereo not drawn) [3-(2-methoxyphenoxy)-N-methyl-3-phenylpropan-1-amine] had a Ki in test [2] of 0.46 nM.

In test [2], `C[C@H](N)Cc1ccccc1` [beta-aminopropylbenzene] came in with a Ki of 1000 nM.

In the case of `COCCCC/C(=N\OCCN)c1ccc(C(F)(F)F)cc1` [(1E)-5-methoxy-1-[4-(trifluoromethyl)phenyl]pentan-1-one O-(2-aminoethyl)oxime], the Ki was greater than 10000 nM in test [3] and 5000 nM in test [2].

With `CCn1cc(C(=O)O)c(=O)c2ccc(Cc3ccccc3)nc21`, the Ki was 18.7 nM in test [3] and greater than 10000 nM in test [2].

The values are drawn from BindingDB's records for doi:10.1124/jpet.301.3.1097 (Harvard University, 2002).
